# Patent US20240317777A1, “NOVEL MACROCYCLIC AMINOPYRAZOLE COMPOUNDS AS CDK2 INHIBITORS” (Accutar Biotechnology Inc., priority 2023, published 2024)
# Where two headings read alike, the source gives them in different places.
# Legend:
# [1] = tested on: Phospho-Rb (Ser807/811) in OVCAR3 cells; experiment: Phospho-Rb expression inhibition in OVCAR3 cells quantified by In Cell Western; format: cell-based; details: read-out: OVCAR-3 pRb IC50
# Description: Phospho-Rb Expression Inhibition in OVCAR3 Cells Quantified by in Cell Western
# OVCAR3 cells were obtained from American Type Culture Collection (ATCC, HTB-161). OVCAR3 cells were plated in 96-well plates (VWR #10062-900, or Corning #3904) in 90 uL culture medium at a density of 20,000 cells/well in the RPM11640 growth medium containing 10% FBS and 1% Penicillin Streptomycin, and then incubated at 37° C. overnight. The following day, the test compound was administered to the cells by using 1000× compound stock solution prepared in DMSO at various concentrations. 1000× compound stock solution was first diluted in culturing medium to 10x, then 10 uL compound medium was added to each well in the cell plates. After administration of the compound, the cells were then incubated at 37° C. for 24 hours. Upon completion, the cells were washed with PBS briefly. 150 uL/well of 4% formaldehyde was added and the plates were incubated at room temperature for 20 mins. The cells were washed with PBS briefly, and permeabilized with 150 uL/well of ice cold 100% methanol for 10 mins. The cells were washed with PBS briefly and blocked with 100 uL/well LI-COR blocking buffer for 1 hr at room temperature with gentle shaking. The cells were incubated overnight at 4° C. with 50 uL primary antibody rabbit anti-Phospho-Rb (Ser807/811) (1:500, Cell Signaling, #8516) and anti-Rb (1:200, Santa Cruz, sc-73598) diluted in Intercept Blocking Buffer (LI-COR, #927-60001) containing 0.1% Tween 20. The next day, the cells were washed with 200 uL PBS containing 0.1% Tween 20, 5×5 mins at room temperature with gentle shaking, and incubated with 50 uL secondary antibody, IRDye® 800CW Goat anti-Rabbit IgG (1:1000, LI-COR, #926-32211) and IRDye® 680RD Goat anti-Mouse IgG (1:1000, LI-COR, #926-68070), in LI-COR blocking buffer with 0.2% Tween 20 for 1 hr at room temperature with gentle shaking. The cells were washed with 200 uL PBS containing 0.1% Tween 20, 5×5 mins at room temperature with gentle shaking. The cells were washed with PBS for 5 mins. 100 uL fresh PBS was added to each well and the plates were imaged on a LI-COR Odyssey CLX plate reader.
# [2] = tested on: CCNE1-amplified OVCAR3 cells; experiment: Cell growth inhibition of CCNE1-amplified OVCAR3 cells (CellTiter-Glo); format: cell-based; details: 6 days
# Description: Cell Growth Inhibition of CCNE1-Amplified OVCAR3 Cells
# OVCAR3 cells were seeded in 96-well plates at 2000 cells/well in 90 μl of RPM11640 growth medium containing 10% FBS and 1% Penicillin Streptomycin, and then incubated at 37° C. overnight. The following day, the test compound was administered to the cells by using 1000× compound stock solution prepared in DMSO at various concentrations. 1000× compound stock solution was first diluted in culturing medium to 10x, then 10 uL compound medium was added to each well in the cell plates. After administration of the compound, the cells were then incubated at 37° C. for 6 days. Upon completion, the plates were equilibrated at room temperature for approximately 10 minutes. 100 ul of CellTiter-Glo® Reagent (Promega) was added to each well. The plates were then incubated at room temperature for 10 minutes and luminescence was recorded by EnSpire plate reader (PerkinElmer).
# [3] = Homo sapiens, OVCAR-3, 24 hours
SMILES,IC50 ([1]; 24 hours) [nM],IC50 [2] [nM],"IC50 [1, 3] [nM]","IC50 ([2]; Homo sapiens, OVCAR-3, 144 h) [nM]"
"CC1CCCNC(=O)OC2CCC(C2)c2cc([nH]n2)Nc2cc(c[n+]([O-])c2)O1 [Compound 153, (1^1S,1^3R,6R,Z)-6-methyl-11-oxo-2^1H-5,12-dioxa-3,10-diaza-4(3,5)-pyridin-1-iuma-2(3,5)-pyrazola-1(1,3)-cyclopentanacyclododecaphane 41-oxide]",> 250,> 250,,
"O=C1NCCCOc2cc(ccn2)Nc2cc([nH]n2)[C@H]2CC[C@H](C2)O1 [Compound 2, (1^1S,1^3R,Z)-2^1H-5,11-dioxa-3,9-diaza-4(4,2)-pyridina-2(3,5)-pyrazola-1(1,3)-cyclopentanacycloundecaphan-10-one]",,,> 250,> 250
"O=C1NC2CCN(CC2)c2cc(ccn2)Nc2cc(n[nH]2)[C@H]2CC[C@H](C2)O1 [Compound 136, (5^1S,5^3R,Z)-4^1H-6-oxa-3,8-diaza-2(2,4)-pyridina-1(1,4)-piperidina-4(5,3)-pyrazola-5(1,3)-cyclopentanacyclooctaphan-7-one]",,,> 250,> 250
"C[C@H]1Oc2cc(ccn2)Nc2cc(n[nH]2)[C@H]2CC[C@H](C2)OC(=O)N[C@H]2C[C@@H]1C2 [Compound 143, (1^1S,1^3R,7^1S,7^3S,6R,Z)-6-methyl-2^1H-5,10-dioxa-3,8-diaza-4(4,2)-pyridina-2(3,5)-pyrazola-1(1,3)-cyclopentana-7(1,3)-cyclobutanacyclodecaphan-9-one]",,,50 to 250,50 to 250
"C[C@@H]1NC(=O)O[C@H]2C[C@H](C[C@H]2F)c2cc([nH]n2)Nc2ccnc(c2)OCCC1(F)F [Compound 226, (1^1R,1^3S,1^4R,9S,Z)-1^4,8,8-trifluoro-9-methyl-2^1H-5,12-dioxa-3,10-diaza-4(4,2)-pyridina-2(3,5)-pyrazola-1(1,3)-cyclopentanacyclododecaphan-11-one]",,,2 to 10,
"C[C@H]1CCCOc2cc(ccn2)Nc2[nH]nc(c2Cl)[C@H]2CC[C@H](C2)OC(=O)N1 [Compound 184, (1^1S,1^3R,9S,E)-2^4-chloro-9-methyl-2^1H-5,12-dioxa-3,10-diaza-4(4,2)-pyridina-2(3,5)-pyrazola-1(1,3)-cyclopentanacyclododecaphan-11-one]",,,> 250,> 250
"O=C1NC2CC(COc3cncc(n3)Nc3cc(n[nH]3)[C@H]3CC[C@H](C3)O1)C2 [Compound 235, (1^1S,1^3R,7^1R,7^3S,Z)-2^1H-5,10-dioxa-3,8-diaza-4(2,6)-pyrazina-2(3,5)-pyrazola-1(1,3)-cyclopentana-7(1,3)-cyclobutanacyclodecaphan-9-one]",,,≤ 2,≤ 2
"C[C@H]1CCCOc2cncc(n2)Nc2[nH]nc(c2F)[C@H]2CC[C@H](C2)OC(=O)N1 [Compound 234, (1^1S,1^3R,9S,E)-2^4-fluoro-9-methyl-2^1H-5,12-dioxa-3,10-diaza-4(2,6)-pyrazina-2(3,5)-pyrazola-1(1,3)-cyclopentanacyclododecaphan-11-one]",,,2 to 10,10 to 50
"O=C1NCCCO[C@H](C(F)(F)F)c2cc(ccn2)Nc2cc(n[nH]2)[C@H]2CC[C@H](C2)O1 [Compound 160, (1^1S,1^3R,5S,Z)-5-(trifluoromethyl)-2^1H-6,12-dioxa-3,10-diaza-4(4,2)-pyridina-2(3,5)-pyrazola-1(1,3)-cyclopentanacyclododecaphan-11-one]",,,50 to 250,50 to 250
"C[C@H]1CCCOc2ncc(F)c(c2F)Nc2cc(n[nH]2)[C@H]2CC[C@H](C2)OC(=O)N1 [Compound 180, (1^1S,1^3R,9S,Z)-4^3,4^5-difluoro-9-methyl-2^1H-5,12-dioxa-3,10-diaza-4(4,2)-pyridina-2(3,5)-pyrazola-1(1,3)-cyclopentanacyclododecaphan-11-one]",,,> 250,> 250
"O=C1N[C@H](C(F)(F)F)CCCOc2cc(ccn2)Nc2cc(n[nH]2)[C@H]2CC[C@H](C2)O1 [Compound 127, (1^1S,1^3R,9S,Z)-9-(trifluoromethyl)-2^1H-5,12-dioxa-3,10-diaza-4(4,2)-pyridina-2(3,5)-pyrazola-1(1,3)-cyclopentanacyclododecaphan-11-one]",,,> 250,> 250
"[2H]C1([2H])CC[C@H](C)NC(=O)O[C@@H]2CC[C@@H](C2)c2cc([nH]n2)Nc2cc(ncc2F)O1 [Compound 175, (1^1S,1^3R,9S,Z)-4^5-fluoro-9-methyl-2^1H-5,12-dioxa-3,10-diaza-4(4,2)-pyridina-2(3,5)-pyrazola-1(1,3)-cyclopentanacyclododecaphan-11-one-6,6-d2]",,,> 250,> 250
"C[C@H]1CCCOc2cncc(n2)Nc2cc(n[nH]2)[C@H]2CC[C@H](C2)OC(=O)N1 [Compound 233, (1^1S,1^3R,9S,Z)-9-methyl-2^1H-5,12-dioxa-3,10-diaza-4(2,6)-pyrazina-2(3,5)-pyrazola-1(1,3)-cyclopentanacyclododecaphan-11-one]",,,≤ 2,≤ 2
"C[C@@H]1NC(=O)O[C@@H]2C[C@@H](C[C@@H]2F)c2cc([nH]n2)Nc2ccnc(c2)OCCC1(F)F [Compound 227, (1^1S,1^3R,1^4S,9S,Z)-1^4,8,8-trifluoro-9-methyl-2^1H-5,12-dioxa-3,10-diaza-4(4,2)-pyridina-2(3,5)-pyrazola-1(1,3)-cyclopentanacyclododecaphan-11-one]",,,10 to 50,

# More lines, now with the values ahead:
IC50 ([1]; 24 hours) [nM],IC50 [2] [nM],"IC50 [1, 3] [nM]","IC50 ([2]; Homo sapiens, OVCAR-3, 144 h) [nM]",SMILES
,,10 to 50,50 to 250,"C[C@H]1CCCOc2cc(ccn2)Nc2[nH]nc(c2F)C2C[C@H](F)[C@@H](C2)OC(=O)N1 [Compound 238, (1^1S,1^3R,1^4S,9S,E)-1^4,2^4-difluoro-9-methyl-2^1H-5,12-dioxa-3,10-diaza-4(4,2)-pyridina-2(3,5)-pyrazola-1(1,3)-cyclopentanacyclododecaphan-11-one]"
,,≤ 2,≤ 2,"C[C@H]1CCCOc2nccc(n2)Nc2cc(n[nH]2)[C@H]2CC[C@H](C2)OC(=O)N1 [Compound 241, (1^1S,1^3R,9S,Z)-9-methyl-2^1H-5,12-dioxa-3,10-diaza-4(4,2)-pyrimidina-2(3,5)-pyrazola-1(1,3)-cyclopentanacyclododecaphan-11-one]"
,,10 to 50,,"C[C@@H]1NC(=O)O[C@@H]2CC(C[C@@H]2F)c2n[nH]c(c2F)Nc2ccnc(c2)OCCC1(F)F [Compound 240, (1^1S,1^3R,1^4S,9S,E)-1^4,2^4,8,8-tetrafluoro-9-methyl-2^1H-5,12-dioxa-3,10-diaza-4(4,2)-pyridina-2(3,5)-pyrazola-1(1,3)-cyclopentanacyclododecaphan-11-one]"
,,> 250,> 250,C[C@H]1CC23CC(C2)(C3)NC(=O)O[C@@H]2CC[C@@H](C2)c2cc(n[nH]2)Nc2cc(nc(C(F)F)c2)O1 [compound 25]
,,≤ 2,,"C[C@H]1CCCOc2cncc(n2)Nc2cc(n[nH]2)C2C[C@@H](F)[C@H](C2)OC(=O)N1 [Compound 242, (1^1R,1^3S,1^4R,9S,Z)-1^4-fluoro-9-methyl-2^1H-5,12-dioxa-3,10-diaza-4(2,6)-pyrazina-2(3,5)-pyrazola-1(1,3)-cyclopentanacyclododecaphan-11-one]"
,,10 to 50,,"C[C@@H]1NC(=O)O[C@H]2CC(C[C@H]2F)c2n[nH]c(c2F)Nc2ccnc(c2)OCCC1(F)F [Compound 239, (1^1R,1^3S,1^4R,9S,E)-1^4,2^4,8,8-tetrafluoro-9-methyl-2^1H-5,12-dioxa-3,10-diaza-4(4,2)-pyridina-2(3,5)-pyrazola-1(1,3)-cyclopentanacyclododecaphan-11-one]"
,,≤ 2,,"C[C@H]1CCCOc2cncc(n2)Nc2[nH]nc(c2F)C2C[C@@H](F)[C@H](C2)OC(=O)N1 [Compound 243, (1^1R,1^3S,1^4R,9S,E)-1^4,2^4-difluoro-9-methyl-2^1H-5,12-dioxa-3,10-diaza-4(2,6)-pyrazina-2(3,5)-pyrazola-1(1,3)-cyclopentanacyclododecaphan-11-one]"
